In patent publication US6869964B2, “Heterocyclicsulfonamide hepatitis C virus inhibitors” (Bristol-Myers Squibb Company, priority 2002, dated 2005) one finds EC50 and IC50 data, which are given here for one compound.

Read-outs that look alike come from different tables or passages of the source.

Test [1] deals with HCV replicon in Huh7 cells. In words: HCV replicon cell-based assay (FRET). To be noted: Hepatitis C virus. Set-up: species or system HCV strain 1B. An excerpt: HCV Replicon Cell-based Assay
An HCV replicon whole cell system was established as described by Lohmann V, Korner F, Koch J, Herian U, Theilmann L, Bartenschlager R., Science 285(5424): 110-3 (1999). This system enabled us to evaluate the effects of our HCV Protease compounds on HICV RNA replication. Briefly, using the HCV strain 1B sequence described in the Lohmann paper (Assession number: AJ238799), an HCV cDNA was generated encoding the 5′ internal ribosome entry site (IRES), the neomycin resistance gene, the EMCV (encephalomyocarditis virus)-IRES and the HCV nonstructural proteins, NS3-NS5B, and 3′ non-translated region (NTR). In vitro transcripts of the cDNA were transfected into the human hepatoma cell line, Huh7. […] Resulting cell lines were characterized for positive and negative strand RNA production and protein production over time.
Huh7 cells, constitutively expressing the HCV replicon, were grown in Dulbecco's Modified Eagle Media (DMEM) containing 10% Fetal calf serum (FCS) and 1 mg/ml G418 (Gibco-BRL). Cells were seeded the night before (1.5×10^4 cells/well) in 96-well tissue-culture sterile plates. Compound and no compound controls were prepared in DMEM containing 4% FCS, 1:100 Penicillin/Streptomysin, 1:100 L-glutamine and 5% DMSO in the dilution plate (0.5% DMSO final concentration in the assay). Compound/DMSO mixes were added to the cells and incubated for 4 days at 37° C. After 4 days, plates were rinsed thoroughly with Phosphate-Buffered Saline (PBS) (3 times 150 μl). The cells were lysed with 25 μl of a lysis assay reagent containing the FRET peptide (RET S1, as described for the in vitro enzyme assay). The lysis assay reagent was made from 5× cell Luciferase cell culture lysis reagent(Promega #E153A) diluted to 1× with distilled water, NaCl added to 150 mM final, the FRET peptide diluted to 10 μM final from a 2 mM stock in 100% DMSO. The plate was then placed into the Cytofluor 4000 instrument which had been set to 340 nm excitation/490 emission, automatic mode for 21 cycles and the plate read in a kinetic mode. EC50 determinations were carried out as described for the IC50 determinations.
For orientation: A replicon is a self-replicating genome or part of one, used to study replication in cells.

Test [2] has as its target T1, human sputum elastase (HS) (Homo sapiens, UniProt P08246).
T1 construct: human sputum elastase (HS); from tissue; host or cells: human sputum (from the enzyme's name only)
T1 sequence (P08246 30-267): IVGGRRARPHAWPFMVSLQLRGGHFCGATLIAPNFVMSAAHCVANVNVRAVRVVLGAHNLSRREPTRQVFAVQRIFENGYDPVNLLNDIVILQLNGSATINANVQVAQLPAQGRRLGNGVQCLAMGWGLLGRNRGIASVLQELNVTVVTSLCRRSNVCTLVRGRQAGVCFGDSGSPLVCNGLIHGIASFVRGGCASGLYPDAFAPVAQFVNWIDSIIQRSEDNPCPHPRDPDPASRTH
In words: Specificity assay, human sputum elastase. It is filed as biochemical. To be noted: 2 hr enzyme-inhibitor pre-incubation. The protocol: (§1) The specificities of compounds of the present invention were determined against a variety of serine proteases: human sputum elastase (HS), porcine pancreatic elastase (PPE) and human pancreatic chymotrypsin and one cysteine protease: human liver cathepsin B. In all cases a 96-well plate format protocol using colorimetric p-nitroaniline (pNA) substrate specific for each enzyme was used as described previously (CT 2633 application) with some modifications to the serine protease assays.
(§2) Each assay included a 2 hr enzyme-inhibitor pre-incubation at RT followed by addition of substrate and hydrolysis to ˜30% conversion as measured on a Spectramax Pro microplate reader. Compound concentrations varied from 100 to 0.4 μM depending on their potency.
(§3) The final conditions and protocol for the serine protease assays were: • 50 mM Tris(hydroxymethyl)aminomethane hydrochloride (Tris-HCl) pH8, • 0.5M Sodium Sulfate (Na2SO4), 50 mM NaCl, 0.1 mM EDTA, 3% DMSO, • 0.01% Tween-20 with: 133 μM succ-AAA-pNA and 20 nM HS or 8 nM PPE; 100 μM succ-AAPF-pNA and 250 pM Chymotrypsin.
(§4) The percentage of inhibition was calculated using the formula: [1−((UVinh−UVblank)/(UVctl−UVblank))]×100
(§5) A non-linear curve fit was applied to the inhibition-concentration data, and the 50% effective concentration (IC50) was calculated by the use of Excel Xl-fit software.

The subject of test [3] is human pancreatic chymotrypsin. Kind of test: Specificity assay, human pancreatic chymotrypsin. It is filed as biochemical. To be noted: 2 hr enzyme-inhibitor pre-incubation. The protocol:
as §1, §2, §3, §4, §5

By EC50 is commonly meant the concentration at which the effect is half-maximal. One may read the IC50 as the concentration that gives 50% inhibition. For the compound `C=CC1C[C@]1(NC(=O)[C@@H]1C[C@@H](Oc2cc(-c3ccccc3)nc3cc(OC)ccc23)CN1C(=O)[C@@H](NC(=O)OC(C)(C)C)C(C)(C)C)C(=O)NS(=O)(=O)c1cccs1` (stereo in doubt) [Compound 1, (1-{4-(7-Methoxy-2-phenylquinolin-4-yloxy)-2-[1-(thiophene-2-sulfonylaminocarbonyl)-2-vinyl-cyclopropylcarbamoyl]-pyrrolidine-1-carbonyl}-2,2-dimethylpropyl)carbamic acid tert-butyl ester], the EC50 was 0.055 µM in test [1] (Huh-7, 96 h, Huh7 cells, 4 days, read-out: EC50 value in the replicon assay) and less than 0.1 µM in test [1] (Huh-7, replicon, activity range, read-out: EC50 a, b, c (Activity Table)). Moreover, the IC50 in test [2] is 35 µM; in test [3], greater than 50 µM.
